The target in one assay is T1, Aurora A (Homo sapiens, UniProt O14965).
T1 construct: C-terminally Histidine4 (His4)-tagged Aurora A full-length protein
T1 sequence (O14965 1-403): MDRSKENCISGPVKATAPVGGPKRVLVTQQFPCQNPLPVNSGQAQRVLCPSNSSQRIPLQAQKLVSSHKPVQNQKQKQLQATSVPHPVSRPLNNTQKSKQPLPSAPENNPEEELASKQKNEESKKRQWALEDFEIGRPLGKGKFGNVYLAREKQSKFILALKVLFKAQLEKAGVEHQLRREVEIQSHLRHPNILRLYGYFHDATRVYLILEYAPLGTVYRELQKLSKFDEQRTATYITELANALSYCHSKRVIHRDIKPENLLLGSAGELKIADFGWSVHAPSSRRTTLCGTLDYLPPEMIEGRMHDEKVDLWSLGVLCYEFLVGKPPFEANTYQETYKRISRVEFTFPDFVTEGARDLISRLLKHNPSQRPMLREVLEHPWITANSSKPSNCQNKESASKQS
The assay can be described thus: IC50 determination for inhibitors of Aurora A (96 MTP-ELISA). Particulars: His4-tagged full-length Aurora A 250 ng/ml, PKB-GSK2 200 nM, ATP 4 μM, 90 min at room temperature, read-out: IC50 Aurora A kinase inhibition. Type of assay: biochemical. The method, then:
IC50 Determination for Inhibitors of Aurora A
• Aurora A is a serine threonine kinase involved in spindle assembly and chromosome segregation.
The assay is a typically ELISA-type assay where biotinylated substrate (PKB-GSK2) is phosphorylated. Phosphorylation is detected by peroxidase (POD) labelled polyclonal antibody (PAK<M-Ig>S-IgG-POD) and phosphopeptide monoclonal antibody (Mab) (MAK<P-GSK>M-27E5-IgG). The assay is validated for IC50-determination.
Method • This assay is performed in 96-well format for IC50 determination with 5 samples (each with 8 concentrations by twofold testing), 100 μl incubation volume and the following plate layout: […]

Another assay deals with HCT 116 cells. The assay can be described thus: CellTiter-Glo assay in HCT 116 cells. Type of assay: cell-based, human. Particulars: Homo sapiens, HCT-116, 120 h, 5 days incubation, 30 μM to 0.0015 μM. The text has this: CellTiter-Glo™ Assay in HCT 116 Cells
The CellTiter-Glo™ Luminescent Cell Viability Assay (Promega) is a homogeneous method of determining the number of viable cells in culture based on quantitation of the ATP present, which signals the presence of metabolically active cells.
HCT 116 cells (human colon carcinoma, ATCC-No. CCl-247) were cultivated in RPMI 1640 medium with GlutaMAX™ I (Invitrogen, Cat-No. 61870-010), 2.5% Fetal Calf Serum (FCS, Sigma Cat-No. F4135 (FBS)); 100 Units/ml penicillin/100 μg/ml streptomycin (=Pen/Strep from Invitrogen Cat. No. 15140). For the assay the cells were seeded in 384 well plates, 1000 cells per well, in the same medium. The next day the test compounds were added in various concentrations ranging from 30 μM to 0.0015 μM (10 concentrations, 1:3 diluted). After 5 days the CellTiter-Glo™ assay was done according to the instructions of the manufacturer (CellTiter-Glo™ Luminescent Cell Viability Assay, from Promega). In brief: the cell-plate was equilibrated to room temperature for approximately 30 minutes and than the CellTiter-Glo™ reagent was added. The contents were carefully mixed for 15 minutes to induce cell lysis. After 45 minutes the luminescent signal was measured in Victor 2, (scanning multiwell spectrophotometer, Wallac).
1st. Day: • Medium: RPMI 1640 with GlutaMAX™ I (Invitrogen, Cat-Nr. 61870), 5% FCS (Sigma Cat.-No. F4135), Pen/Strep (Invitrogen, Cat No. 15140). • HCT116 (ATCC-No. CCl-247): 1000 cells in 60 μl per well of 384 well plate (Greiner 781098, μClear-plate white) • After seeding incubate plates 24 h at 37° C., 5% CO2
2nd. Day: Induction (Treatment with Compounds, 10 Concentrations):
In order to achieve a final concentration of 30 μM as highest concentration 3.5 μl of 10 mM compound stock solution were added directly to 163 μl media. Then step e) of the dilution procedure described below, was followed.

With `Cc1cc(Nc2nn(-c3ccc(N4CCCCC4)cc3)c(=O)c3ccccc23)[nH]n1` [Example V-1, 4-(5-Methyl-2H-pyrazol-3-ylamino)-2-(4-piperidin-1-yl-phenyl)-2H-phthalazin-1-one], the concentration for half-maximal inhibition (IC50) on Aurora A was 1 to 100 nM; in the assay on HCT 116 cells, 0.1 to 10 µM.

As for `COCCn1nc(Nc2cc(C)n[nH]2)c2ccccc2c1=O` [Example O-1, 2-(2-Methoxyethyl)-4-(5-methyl-2H-pyrazol-3-ylamino)-2H-phthalazin-1-one], the IC50 at Aurora A is 100 to 1000 nM; in the assay on HCT 116 cells, 10 to 100 µM.

`Cc1cc(Nc2nn(-c3ccc(S(=O)(=O)C(C)(C)C)cc3)c(=O)c3ccccc23)n[nH]1` [Example ZA-1, 2-[4-(2-Methyl-propane-2-sulfonyl)-phenyl]-4-(5-methyl-1H-pyrazol-3-ylamino)-2H-phthalazin-1-one]: the IC50 on Aurora A lay within 1 to 100 nM; in the assay on HCT 116 cells it was 0.1 to 10 µM.

Consider `Cc1cc(Nc2nn(C(C)C)c(=O)c3c(N4CCOCC4)cccc23)n[nH]1` [Example F-3, 2-Isopropyl-4-(5-methyl-1H-pyrazol-3-ylamino)-8-morpholino-2H-phthalazin-1-one], for which the figures for the IC50 at Aurora A and with HCT 116 cells were 1 to 100 nM and 0.1 to 10 µM, respectively.

With `Cc1cc(Nc2nn(C(C)C)c(=O)c3cc(CN4CCOCC4)ccc23)n[nH]1` [Example L-2, 2-Isopropyl-4-(5-methyl-1H-pyrazol-3-ylamino)-7-morpholin-4-ylmethyl-2H-phthalazin-1-one], the concentration for half-maximal inhibition (IC50) fell in the range of 1 to 100 nM on Aurora A and 0.1 to 10 µM in the assay with HCT 116 cells.

Take `CNC(=O)c1ccc(-n2nc(Nc3cc(C)[nH]n3)c3ccccc3c2=O)cc1` [Example S-1, N-Methyl-4-[4-(5-methyl-1H-pyrazol-3-ylamino)-1-oxo-1H-phthalazin-2-yl]-benzamide]: the IC50 lay in the range of 100 to 1000 nM at Aurora A and 0.1 to 10 µM in the assay with HCT 116 cells.

For the molecule `Cc1cc(Nc2nn(C)c(=O)c3ccccc23)n[nH]1` [Example A-3, 2-Methyl-4-(5-methyl-1H-pyrazol-3-ylamino)-2H-phthalazin-1-one], the half-maximal inhibitory concentration (IC50) on Aurora A fell in the range of 100 to 1000 nM; with HCT 116 cells, 0.1 to 10 µM.

On to `Cc1cc(Nc2nn(Cc3ccccc3)c(=O)c3cc(N4CCOCC4)ccc23)n[nH]1` [Example F-4, 2-Benzyl-4-(5-methyl-1H-pyrazol-3-ylamino)-7-morpholino-2H-phthalazin-1-one], for which the half-inhibitory concentration (IC50) is 1 to 100 nM at Aurora A and 0.1 to 10 µM with HCT 116 cells.

On to `Cc1cc(Nc2nn(C(C)C)c(=O)c3cc(OCc4ccccn4)ccc23)n[nH]1` [Example G-2, 2-Isopropyl-4-(5-methyl-1H-pyrazol-3-ylamino)-7-(pyridin-2-ylmethoxy)-2H-phthalazin-1-one], for which the IC50 on Aurora A lay within 1 to 100 nM; with HCT 116 cells, 0.1 to 10 µM.

For `CC(=O)Nc1ccc(Cn2nc(Nc3cc(C)[nH]n3)c3ccccc3c2=O)cc1` [Example D-1, N-{4-[4-(5-Methyl-1H-pyrazol-3-ylamino)-1-oxo-1H-phthalazin-2-ylmethyl]-phenyl}-acetamide], the IC50 on Aurora A is 1 to 100 nM; with HCT 116 cells it was 4.19 µM.

Turning to `Cc1cc(Nc2nn(CC(=O)c3ccc4c(c3)OCO4)c(=O)c3ccccc23)n[nH]1` [Example E-7, 2-(2-Benzo[1,3]dioxol-5-yl-2-oxo-ethyl)-4-(5-methyl-1H-pyrazol-3-ylamino)-2H-phthalazin-1-one], the 50% inhibitory concentration (IC50) on Aurora A fell in the range of 100 to 1000 nM; in the assay on HCT 116 cells it was 0.1 to 10 µM.

As to `COc1cccc(C(=O)Cn2nc(Nc3cc(C)[nH]n3)c3ccccc3c2=O)c1` [Example E-5, 2-[2-(3-Methoxy-phenyl)-2-oxo-ethyl]-4-(5-methyl-1H-pyrazol-3-ylamino)-2H-phthalazin-1-one], the IC50 lay within 1 to 100 nM at Aurora A and 0.1 to 10 µM in the assay on HCT 116 cells.

For `Cc1cc(Nc2nn(-c3cccc(C(F)(F)F)c3)c(=O)c3ccccc23)n[nH]1` [Example R-1, 4-(5-Methyl-1H-pyrazol-3-ylamino)-2-(3-trifluoromethyl-phenyl)-2H-phthalazin-1-one], the IC50 at Aurora A was 1 to 100 nM; in the assay on HCT 116 cells, 0.1 to 10 µM.

Consider `Cc1cc(Nc2nn(-c3ccc(C(F)(F)F)cc3)c(=O)c3ccccc23)n[nH]1` [Example A-25, 4-(5-Methyl-1H-pyrazol-3-ylamino)-2-(4-trifluoromethyl-phenyl)-2H-phthalazin-1-one], for which the half-inhibitory concentration (IC50) was in the range of 1 to 100 nM at Aurora A and 0.1 to 10 µM in the assay with HCT 116 cells.

Regarding `Cc1cc(Nc2nn(-c3ccccc3)c(=O)c3ccc(N)cc23)n[nH]1` [Example Z-1, 6-Amino-4-(5-methyl-1H-pyrazol-3-ylamino)-2-phenyl-2H-phthalazin-1-one], the IC50 at Aurora A fell in the range of 100 to 1000 nM; with HCT 116 cells, 0.1 to 10 µM.

Take `Cc1cc(Nc2nn(C(C)C)c(=O)c3cc(N(C)C(=O)NC(C)C)ccc23)n[nH]1` [Example I-6, 3-Isopropyl-1-[3-isopropyl-1-(5-methyl-1H-pyrazol-3-ylamino)-4-oxo-3,4-dihydro-phthalazin-6-yl]-1-methyl-urea]: the IC50 at Aurora A was in the range of 1 to 100 nM; in the assay with HCT 116 cells, 0.1 to 10 µM.

Consider `Cc1cc(Nc2nn(-c3ccc(NC(=O)c4ccccc4)cc3)c(=O)c3ccccc23)n[nH]1` [Example T-4, N-{4-[4-(5-Methyl-1H-pyrazol-3-ylamino)-1-oxo-1H-phthalazin-2-yl]-phenyl}-benzamide], for which the figures for the IC50 on Aurora A and with HCT 116 cells were 100 to 1000 nM and 0.1 to 10 µM, respectively.

Take `Cc1cc(Nc2nn(Cc3ccccc3)c(=O)c3ccccc23)n[nH]1` [Example A-2, 2-Benzyl-4-(5-methyl-1H-pyrazol-3-ylamino)-2H-phthalazin-1-one]: the concentration for half-maximal inhibition (IC50) on Aurora A is 65 nM; in the assay with HCT 116 cells, 0.1 to 10 µM.

With `CC(C)n1nc(Nc2cc(C3CC3)n[nH]2)c2ccc(N(C)C)cc2c1=O` [Example F-9, 4-(5-Cyclopropyl-2H-pyrazol-3-ylamino)-7-dimethylamino-2-isopropyl-2H-phthalazin-1-one], the 50% inhibitory concentration (IC50) on Aurora A is 1 to 100 nM; with HCT 116 cells, 0.1 to 10 µM.

With `Cc1cc(Nc2nn(C(C)C)c(=O)c3cc(C(=O)N4CCOCC4)ccc23)n[nH]1` [Example M-2, 2-Isopropyl-4-(5-methyl-1H-pyrazol-3-ylamino)-7-(morpholine-4-carbonyl)-2H-phthalazin-1-one], the half-inhibitory concentration (IC50) on Aurora A lay within 1 to 100 nM; in the assay with HCT 116 cells it was 0.1 to 10 µM.

Turning to `Cc1cc(Nc2nn(C(C)C)c(=O)c3cc(N(C)Cc4cccnc4)ccc23)n[nH]1` [Example I-3, 2-Isopropyl-4-(5-methyl-1H-pyrazol-3-ylamino)-7-(methyl-pyridin-3-ylmethyl-amino)-2H-phthalazin-1-one], the concentration for half-maximal inhibition (IC50) is 1 to 100 nM on Aurora A and 0.1 to 10 µM in the assay with HCT 116 cells.

Consider `Cc1cc(Nc2nn(CC(O)c3ccccc3)c(=O)c3ccccc23)n[nH]1` (centres unmarked) [Example E-13, 2-(2-Hydroxy-2-phenyl-ethyl)-4-(5-methyl-1H-pyrazol-3-ylamino)-2H-phthalazin-1-one], for which the figures for the IC50 on Aurora A and in the assay on HCT 116 cells were 100 to 1000 nM and 10 to 100 µM, respectively.

Regarding `Cc1cc(Nc2nn(-c3ccc([N+](=O)[O-])cc3)c(=O)c3ccccc23)n[nH]1` [Example W-3, 4-(5-Methyl-1H-pyrazol-3-ylamino)-2-(4-nitro-phenyl)-2H-phthalazin-1-one], the figures for the IC50 on Aurora A and with HCT 116 cells were 1 to 100 nM and 10 to 100 µM, respectively.

As for `Cc1cc(Nc2nn(Cc3ccc(N)cc3)c(=O)c3ccccc23)n[nH]1` [Example C-1, 2-(4-Aminobenzyl)-4-(5-methyl-1H-pyrazol-3-ylamino)-2H-phthalazin-1-one], the IC50 on Aurora A lay within 1 to 100 nM; in the assay with HCT 116 cells, 0.1 to 10 µM.

With `Cc1cc(Nc2nn(C(C)C)c(=O)c3cc(OCCN4CCOCC4)ccc23)n[nH]1` [Example G-5, 2-Isopropyl-4-(5-methyl-1H-pyrazol-3-ylamino)-7-(2-morpholin-4-yl-ethoxy)-2H-phthalazin-1-one], the figures for the IC50 on Aurora A and in the assay with HCT 116 cells were 7 nM and 0.1 to 10 µM, respectively.

The values above are taken from patent publication US7226923B2, “Phthalazinone derivatives” (Hoffman-La Roche Inc., priority 2004, dated 2007).
